Measurements from patent US20150073002A1, “COMBINATION” (GlaxoSmithKline LLC, priority 2010, published 2015).
Where two headings read alike, the source gives them in different places.

Assays:
[1] = test system: BT-474-J4; assay: Cell growth inhibition assay (Cell Titer Glo), BT-474-J4; format: cell-based, human; settings: BT-474-J4, 3 days, single agent, read-out: Single Agent IC50 (μM), mean ± STD
Procedure: (§1) Human breast tumor cell lines BT474, HCC1419, HCC1954, JIMT1, MDA-MB-361, SK-BR-3 and UACC893 were cultured in RPMI 1640 medium containing 10% FBS. BT-474-J4, a breast cancer cell line acquired resistant to Compound A was cultured in RPMI 1640 medium containing 10% FBS and 1 μM of Compound A. KPL4 breast cancer line was cultured in DMEM containing 5% FBS. All lines were kept in a humidified incubator at 37° C. in 95% air and 5% CO2. JIMT-1 is a cell line established from a tumor of a patient with trastuzumab-resistant breast cancer. BT-474-J4 is a single cell clone derived from a culture of BT-474 cells that were selected to grow in Compound A to a concentration of 3 μM.
(§2) All cells were cultured for a minimum of 72 hours prior to cell plating. Cells were assayed in a 96-well tissue culture plate (NUNC 136102) of RPMI medium containing 10% FBS for all cells at 2,000 cells per well except KPL4, which were plated in DMEM containing 5% FBS at 500 cells per well. Approximately 24 hours after plating, cells were exposed to ten, two-fold or three-fold serial dilutions of compound or the combination of the two agents at a constant molar to molar ratio of 1:1 Compound A to Compound B in RPMI media containing 10% FBS or DMEM containing 5% FBS for KPL4. Cells were incubated in the presence of compounds for 3 days. ATP levels were determined by adding Cell Titer Glo® (Promega) according to the manufacturer's protocol. Briefly, Cell Titer Glo® was added to each plate, incubated for 20 minutes then the luminescent signal was read on a SpectraMax L plate reader with a 0.5 sec integration time.
(§3) Inhibition of cell growth was estimated after treatment with compound or a combination of compounds for three days and comparing the signal to cells treated with vehicle (DMSO). Cell growth was calculated relative to vehicle (DMSO) treated control wells. […]

[2] = test system: KPL-4; assay: Cell apoptosis induction, caspase-3/7 activation, KPL-4; format: cell-based, human
Procedure: as §1
(§4) For investigation of the induction of apoptosis, cells were plated at 5,000 cells per well in a 96-well tissue culture plate and allowed to attach for approximately 24 hours. Cells were exposed to ten, two-fold or three-fold serial dilutions of compound or the combination of the two agents at a constant molar to molar ratio of 10:1 Compound A to Compound B in RPMI media containing 10% FBS or DMEM containing 5% FBS for KPL4. Twenty-four hours after compound treatment, caspase 3/7 activity was determined with the Caspase Glo™ 3/7 (Promega, cat G8093) according to the instructions provided by the manufacturer.

[3] = test system: BT474-J4; assay: Cell apoptosis induction, caspase-3/7 activation, BT474-J4; format: cell-based, human; settings: BT474-J4, 24 hours
Procedure: as §1, §4

[4] = test system: KPL4; assay: Cell growth inhibition assay (Cell Titer Glo), KPL4; format: cell-based; settings: Homo sapiens, 72 h; KPL4, 3 days, single agent; read-out: Single Agent IC50 (μM), mean ± STD
Procedure: as §1
(§5) All cells were cultured for a minimum of 72 hours prior to cell plating. […] ATP levels were determined by adding Cell Titer Glo® (Promega) according to the manufacturer's protocol. Briefly, Cell Titer Glo® was added to each plate, incubated for 20 minutes then the luminescent signal was read on a SpectraMax L plate reader with a 0.5 sec integration time.
as §3

[5] = test system: KPL-4, UACC893 and HCC1954 lines; assay: Cell growth inhibition, text summary over three lines; format: cell-based; settings: Homo sapiens, 72 h; over KPL-4, UACC893 and HCC1954 lines, 3 days; read-out: IC50 as a single agent
Procedure: as §1, §2, §3
(§6) Combination effects on potency were evaluated using Combination Index (CI) which was calculated with the back-interpolated IC50 values and the mutually non-exclusive equation derived by Chou and Talalay (Chou T C, Talalay P. Quantitative analysis of dose-effect relationships: the combined effects of multiple drugs or enzyme inhibitors. Adv Enzyme Regul 1984; 22:27-55): […]
(§7) The combination effects on the response scale were quantified by Excess Over Highest Single Agent (EOHSA) [Liu L, Shi H, Liu Y, Anderson A, Peterson J, Greger J, Martin A M, Gilmer T M. Synergistic Effects of Foretinib with HER-Targeted Agents in MET and HER1- or HER2-Coactivated Tumor Cells. […] For single agent and combination treatments, cells were exposed to compounds at a fixed-dose-ratio, and dose response curves were fit to the experimental data and analyzed using regression models described above. […]

[6] = test system: HCC1419, SK-BR-3 and BT474 lines; assay: as above; format: cell-based; settings: Homo sapiens, 72 h; over HCC1419, SK-BR-3 and BT474 lines, 3 days; read-out: IC50 as a single agent
Procedure: as §1, §2, §3, §6, §7

[7] = test system: BT474-J4, and MDA-MB-361; assay: Cell growth inhibition, text summary over two lines; format: cell-based; settings: Homo sapiens, 72 h; over BT474-J4 and MDA-MB-361 lines, 3 days; read-out: IC50 as a single agent
Procedure: All cells were cultured for a minimum of 72 hours prior to cell plating. […] Cells were incubated in the presence of compounds for 3 days. ATP levels were determined by adding Cell Titer Glo® (Promega) according to the manufacturer's protocol.
Cell growth was calculated relative to vehicle (DMSO) treated control wells.
In general, a CI value <0.9, between 0.9 and 1.1, or >1.1 indicates synergy, additivity and antagonism, respectively. In general, the smaller the CI number, the greater is the strength of synergy.

[8] = test system: BT-474; assay: Cell growth inhibition assay (Cell Titer Glo), BT-474; format: cell-based; settings: Homo sapiens, 72 h; BT-474, 3 days, single agent; read-out: Single Agent IC50 (μM), mean ± STD
Procedure: as §1, §5, §3

[9] = test system: JIMT-1; assay: Cell growth inhibition assay (Cell Titer Glo), JIMT-1; format: cell-based, human; settings: JIMT-1, 3 days, single agent, read-out: Single Agent IC50 (μM), mean ± STD
Procedure: as §1, §2, §3, §6, §7

[10] = test system: HCC1954; assay: Cell growth inhibition assay (Cell Titer Glo), HCC1954; format: cell-based; settings: Homo sapiens, 72 h; HCC1954, 3 days, single agent; read-out: Single Agent IC50 (μM), mean ± STD
Procedure: as §1, §5, §3

[11] = test system: HCC1419; assay: Cell growth inhibition assay (Cell Titer Glo), HCC1419; format: cell-based; settings: Homo sapiens, 72 h; HCC1419, 3 days, single agent; read-out: Single Agent IC50 (μM), mean ± STD
Procedure: as §1, §5, §3

[12] = test system: SK-BR-3; assay: Cell growth inhibition assay (Cell Titer Glo), SK-BR-3; format: cell-based; settings: Homo sapiens, 72 h; SK-BR-3, 3 days, single agent; read-out: Single Agent IC50 (μM), mean ± STD
Procedure: as §1, §5, §3

[13] = test system: MDA-MB-361; assay: Cell growth inhibition assay (Cell Titer Glo), MDA-MB-361; format: cell-based, human; settings: MDA-MB-361, 3 days, single agent, read-out: Single Agent IC50 (μM), mean ± STD
Procedure: as §1
All cells were cultured for a minimum of 72 hours prior to cell plating. Cells were assayed in a 96-well tissue culture plate (NUNC 136102) of RPMI medium containing 10% FBS for all cells at 2,000 cells per well except KPL4, which were plated in DMEM containing 5% FBS at 500 cells per well. […] ATP levels were determined by adding Cell Titer Glo® (Promega) according to the manufacturer's protocol. Briefly, Cell Titer Glo® was added to each plate, incubated for 20 minutes then the luminescent signal was read on a SpectraMax L plate reader with a 0.5 sec integration time.
as §3, §6

[14] = test system: BT474; assay: Cell apoptosis induction, caspase-3/7 activation, BT474; format: cell-based, human; settings: BT474, 24 hours
Procedure: as §1, §4

[15] = test system: UACC893; assay: Cell growth inhibition assay (Cell Titer Glo), UACC893; format: cell-based; settings: Homo sapiens, UACC-893, 72 h; UACC893, 3 days, single agent; read-out: Single Agent IC50 (μM), mean ± STD
Procedure: as §1, §5, §3

IC50 ([1]; Homo sapiens, 72 h) | IC50 [5] | IC50 [6] | IC50 [8] | IC50 [10] | IC50 [11] | IC50 [12] | IC50 ([13]; Homo sapiens, MDA-MB-361, 72 h) | Structure (SMILES) | IC50 [4] | IC50 ([9]; Homo sapiens, JIMT-1, 72 h) | IC50 [9] | IC50 [15] | further results
9.23 ± 3.83 µM | 0.9 to 1.7 µM | ≤ 0.134 µM | 0.134 ± 0.049 µM | 1.73 ± 0.165 µM | 0.077 ± 0.017 µM | 0.105 ± 0.039 µM | > 10 µM | CS(=O)(=O)CCNCc1ccc(-c2ccc3ncnc(Nc4ccc(OCc5cccc(F)c5)c(Cl)c4)c3c2)o1 [Compound A, N-{3-Chloro-4-[(3-fluorobenzyl)oxy]phenyl}-6-[5-({[2-(methanesulphonyl)ethyl]amino}methyl)-2-furyl]-4-quinazolinamine, reference compound] | 0.86 ± 0.039 µM | ≥ 6.8 µM | > 10 µM | 1.12 ± 0.15 µM | caspase 3/7 activity ([2]; KPL4, 24 hours, compound alone at 10 μM): slight increase in caspase 3/7 activity; caspase 3/7 activity ([3]; compound alone at 10 μM): slight increase in caspase 3/7 activity; IC50 [7]: ≥ 9.2 µM; caspase 3/7 activity ([14]; compound alone, dose response): increased caspase 3/7 activity in a dose dependent manner
0.5 µM | 0.5 to 3.7 µM | ≥ 2.6 µM | 3.3 ± 1.1 µM | 3.67 ± 2.97 µM | 2.62 ± 0.548 µM | 4.19 ± 1.58 µM | 0.7 µM | Cn1ncc(Cl)c1-c1cc(C(=O)N[C@H](CN)Cc2cccc(F)c2)sc1Cl [Compound B, N-{(1S)-2-amino-1-[(3-fluorophenyl)methyl]ethyl}-5-chloro-4-(4-chloro-1-methyl-1H-pyrazol-5-yl)-2-thiophenecarboxamide] | 0.113 ± 0.012 µM | ≥ 6.8 µM | 6.81 ± 2.13 µM | 0.505 ± 0.303 µM | IC50 [1]: 0.67 ± 0.026 µM; caspase 3/7 activity ([2]; KPL-4, 24 hours, compound alone at 1 μM): but not in the KPL-4 line; caspase 3/7 activity ([3]; compound alone at 1 μM): slightly increased caspase 3/7 activity; IC50 [13]: 0.758 ± 0.074 µM; caspase 3/7 activity ([14]; compound alone at 1 μM): slightly increased caspase 3/7 activity
